Laboratory results reported in US11166894B2, “Shampoo compositions comprising a chelant” (The Procter & Gamble Company, priority 2016, dated 2021).
Entries after “also recorded” stand apart in the source; their conditions may differ.

Legend:
[1] = Copper on hair after repeat shampoo wash cycles (ICP-OES), versus shampoo without chelant; details: for Copper Removing Performance from Shampoo: clarifying shampoo containing the chelant, 20 cycles, copper content of hair compared to shampoo without the chelant; for reduction/removal of copper on hair compared to shampoo without chelant (in words): 10 shampoo cycles; for reduction/removal of copper on hair compared to control shampoo (in words): 20 shampoo cycles, clarifying shampoo; for reduces copper by: shampoo composition containing 0.1 wt % chelant, 20 cleaning cycles, compared to shampoo without the chelant
Description: The copper removing performance of the shampoo composition is determined by treating hair with clarifying shampoo containing the corresponding chelant for 20 cycles and comparing the copper content of the hair compared to the same treatment using shampoo without the chelant.
(§1) All testing are performed on colored hair switches (see Method of Measurement of Copper on Hair below) weighing approximately […] and having a length of approximately 6 inches. The hair switches are commercially available from IHIP (International Hair Importers). Three hair switches per sampoo composition are used. An amount of […] of shampoo is spread via a syringe onto separate hair switch. That is, the dosage is 0.10 g of shampoo per g of hair. Each application consists of adding shampoo to the hair, milking for 30 seconds followed by rinsing for 30 seconds. Shampoo is then reapplied (0.1 g/g), milked for 30 seconds and rinsed for 30 seconds. Excess water is squeezed from the hair switches and left to air dry or treated with a rinse-off conditioner and/or a leave-on treatment composition. This protocol is repeated for a number of times/cycles (as indicated in the tables below, which describe the details of hair treatments).
The following test method is used to assess the ability of the compositions and regimens to remove copper from the hair and to inhibit copper deposition onto the hair.
Hair switches are colored once with an oxidative hair colorant. An extra blonde shade is used for the testing. The hair switches are washed for 10 or 20 repeat wash cycles in tap water containing 7 grains per gallon water hardness (Ca/Mg) and 0.06 μg/g copper ions. Each wash cycle consists of two applications of 0.1 g/g a shampoo to the hair switches. Each application consists of adding shampoo to the hair, milking for 30 secs followed by rinsing for 30 secs. Shampoo is then reapplied 0.1 g/g, milked for 30 secs, rinsed for 30 secs and then dried in a heat box (60° C.) until dry.
Samples of 100 mg of hair are digested overnight with 2 ml of high purity concentrated nitric acid. The digestive mixture also contains 150 μL of 100 μg/g Yttrium internal standard (Inorganic Ventures, Christianburg, Va., USA). Following digestion, samples are heated to 70-80° C. for one hour, cooled to room temperature and diluted to 15 mL with deionized water. Copper content of the hair switches is determined by inductively coupled plasma atomic spectroscopy (ICP-OES)). For each leg, 3 different samples are analyzed.
In order to minimize the variability of the resulting copper content on hair that is related to (a) lot-to-lot viariability due to hair switches and (b) day-to-day variability of the water used during shampoo and conditioner treatments, a single lot of hair switches is used for each experimental series and a separate control experiment/treatment is run for each experimental series (see below).

[2] = log P, n-octanol/water partition coefficient; assay type: physicochemical
Excerpt: The term log P is the n-octanol/water partition coefficients of the material.
The copper to be removed is inside the hair and the chelant needs to penetrate inside hair and form a strong copper-chelant complex. This copper-chelant complex needs to be water soluble and thus easily removed during the rinsing process. […] These are log P, the octanol/water partitioning coefficient, and the molecular weight of the chelant. Both are related to the ability of the chelant to penetrate into hair and also form a water soluble copper-chelant complex

[3] = log of formation constant of complex with copper; cited from earlier work
[4] = Copper on hair after regimen cycles of shampoo, rinse-off conditioner and leave-on treatment (ICP-OES); details: 20 conditioning shampoo/rinse-off conditioner/leave-on treatment regimen cycles
Description: as §1
The following test method is used to assess the ability of the compositions and regimens to remove copper from the hair and to inhibit copper deposition onto the hair. […]
Samples of 100 mg of hair are digested overnight with 2 ml of high purity concentrated nitric acid. […] Copper content of the hair switches is determined by inductively coupled plasma atomic spectroscopy (ICP-OES)). For each leg, 3 different samples are analyzed. […]

**Q.** Which results are given for NCCCNCCCNCCCN [1,5,9,13-Tetraazatridecane]?
**A.** Copper Removing Performance from Shampoo [1]: 15%; logP [2]: -2.1; Log KML Cu [3]: 17.1

**Q.** Which “reduction/removal of copper on hair compared to shampoo without chelant (in words)” value [1] does the source give for NCCNCCNCCN [2,3-Triethylenetetramine] here?
**A.** significant reduction of copper content on hair

**Q.** What about the “reduction/removal of copper on hair compared to control shampoo (in words)” value [1] of the same molecule?
**A.** effective removal of copper from hair; also recorded: more effective treatements

**Q.** What about the “Copper Removing Performance from Shampoo” value [1] of the same molecule?
**A.** 70%

**Q.** What about the logP [2] of the same molecule?
**A.** -2.3

**Q.** And the “removal of copper from hair compared to control regimen (in words)” value [4]?
**A.** effective removal of copper from hair

**Q.** And the “Log KML Cu” value [3]?
**A.** 20.1

**Q.** What does the source list for NCCNCCNCCNCCN [2,4-Tetraethylenepentamine]?
**A.** reduction/removal of copper on hair compared to control shampoo (in words) [1]: more effective treatements; Copper Removing Performance from Shampoo [1]: 60%; logP [2]: -2.7; Log KML Cu [3]: 22.8

**Q.** For CC(O)CN(CCN(CC(C)O)CC(C)O)CC(C)O (stereo not shown) [Ethylenedinitrilotetrapropan-2-ol], which “reduction/removal of copper on hair compared to control shampoo (in words)” value [1] is on record?
**A.** effective removal of copper from hair

**Q.** And the “Copper Removing Performance from Shampoo” value [1]?
**A.** 30%

**Q.** What about the “Log P” value [2] of the same molecule?
**A.** −0.2

**Q.** And the “Log KML Cu” value [3]?
**A.** 9.8

**Q.** Which “reduces copper by” value [1] does the source give for O=C(O)CN(CCO)CC(=O)O [N-(2-hydroxyethyl)iminodiacetic acid] here?
**A.** 30%

**Q.** With CC(O)CN(CCN(CC(C)O)CC(C)O)CCN(CC(C)O)CC(C)O (stereo not shown) [Pentrol] as the molecule, how does the “Log P” value [2] read?
**A.** −0.2

**Q.** For OCCN(CCO)CCN(CCO)CCN(CCO)CCN(CCO)CCN(CCO)CCO [Tetraethylenepentaamine-(1-EO)], which logP [2] is on record?
**A.** -2.9

**Q.** Which “reduction/removal of copper on hair compared to shampoo without chelant (in words)” value [1] does the source give for NCCN(CCN)CCN [Tris(2-aminoethyl)amine] here?
**A.** effective removal of copper from hair

**Q.** And the “Copper Removing Performance from Shampoo” value [1]?
**A.** 45%

**Q.** What about the logP [2] of the same molecule?
**A.** -2.2

**Q.** And the “Log KML Cu” value [3]?
**A.** 18.8

**Q.** With O=C(O)CNCC(=O)O [iminodiacetic acid] as the molecule, how does the “reduces copper by” value [1] read?
**A.** 40%
